Source: patent US20140194484A1, “Method of Treating Cachexia and Sarcopenia” (priority 2012, published 2014)
Entries after “also recorded” stand apart in the source; their conditions may differ.

Key:
[1] = system: patients with cachexia related to late stage colorectal cancer (CRC) or non-small cell lung cancer (NSCLC); format: in vivo, human
Procedure: An international multicentre, randomised, double blind, placebo controlled clinical trial was conducted with three parallel treatment groups with dose escalation within each group. Male and female patients aged between 25 to 80 years of age with cachexia related to underlying progressive or recurrent late stage colorectal cancer (CRC) or non-small cell lung cancer (NSCLC) were treated for 16 weeks with either S-pindolol or placebo. All patients received standard of care chemotherapy, radiotherapy and supportive care throughout the study at the discretion of their treating physician.
After provision of written informed consent, patients were assessed for eligibility at screening visits occurring from days -8 to -1. All eligible patients with written informed consent were given a set of performance tests [stair climbing power (SCP), hand grip strength (HGS), short performance battery test (SPBT) and the six minute walk test (SMWT)] and receive a 7 day course of placebo (1 tablet two times per day). Patients able to adequately complete the performance tests and with at least 80% compliance after 7 days (tablet count: at least […]) were then randomised on Day 0 to one of three treatment groups. All patients attended for visits on days 7, 14, 21, 28, (each +/−1 day), 56, 84, 112, and 140 (each +/−7 days).
The dose of S-pindolol or placebo was escalated by the investigator in a blinded fashion as described below under the heading “Dose Escalation”. The maximum period of drug titration was 4 weeks and the minimum period was 2 weeks. The patients were required to attend study visits at 1 week intervals after the start of the titration phase until completion of dose escalation. The aim of dose escalation for all subjects is to reach the target dose of 8 tablets per day (4 tablets bd) or the maximum tolerated dose for a particular patient within the first 4 week period. Dose titration was achieved by varying the number of tablets taken from bottle 2. This was done such that patients will be randomised to receive either placebo, 2.5 mg S-pindolol twice daily, 5 mg S-pindolol twice daily, 7.5 mg S-pindolol twice daily, or 10 mg S-pindolol twice daily according to tolerance of the study drug.
• S-pindolol or placebo was administered over a 16 week period. The treatment regimens for the study are summarised below. • At regular monitoring visits, a study monitor checked that all code-break envelopes remained intact.
• Product was taken orally with food as prescribed two times daily
A SMWT was conducted on days 0, 28, 56, 84 and 112. The SMWT was conducted as described by Paul L Enright (Respiratory Care, August 2003 Vol 48 No 8)^12. A straight, level and even area at least 20 meter long and 2 meters wide was marked out at each investigational site and used for the SMWT for all subjects at each time point. Identical chairs were placed at each end of the 20 meter track.
The SCP test was conducted on days 0, 28, 56, 84 and 112. The SCP test was modified from that described by Bean et al (Arch Phys Med Rehabil Vol 88, May 2007) to account for the different stairway configurations at the investigational sites.
A HGS test was conducted on days 0, 28, 56, 84 and 112. The HGS test was modified from that described by Bassey (1990; NIH, 1990). A standard handgrip dynamometer (provided by Sponsor) that can be adjusted for hand size was used at all sites. Both hands were alternately measured in triplicate, followed by a fourth attempt on the dominant hand only. After an explanation the subject squeezed the handle as forcefully as possible for a few seconds and then released. Subjects were encouraged verbally using a standard script and the best score (in kilograms) of the dominant hand recorded in the CRF.
DEXA was performed at selected DEXA scan centres on days at day -1, 56 and 112.
The maximum period of drug titration was 4 weeks and the minimum period was 2 weeks. […]

[2] = system: pre-clinical models of cancer cachexia; test: pre-clinical models of cancer cachexia; format: in vivo
[3] = high dose (10 mg bd), ITT population, DEXA
[4] = compared with other β blockers studied

CC(C)NC[C@H](O)COc1cccc2[nH]ccc12 [S-pindolol]
Six minute walk test change ([1]; 2.5 and 10 mg bd vs placebo): trend towards dose response | Stair climbing power change ([1]; 2.5 and 10 mg bd vs placebo): trend towards dose response | Hand Grip Strength change, efficacy compared to placebo ([1]; high dose (10 mg bd), ITT population): statistically significant | Absolute weight change (primary endpoint), efficacy compared to placebo ([1]; high dose (10 mg bd), ITT population, 16 weeks): statistically significant | Fat mass change, efficacy compared to placebo [1, 3]: statistically significant | Lean mass change, efficacy compared to placebo [1, 3]: statistically significant | survival, difference between arms (FIG. 7) ([1]; low dose, high dose MT-102 and placebo arms): No significant differences in survival | benefit compared to placebo and racemic pindolol (FIG. 4) ([2]; FIG. 4): particularly beneficial | effects on aspects of cancer cachexia [2, 4]: significant effects on all aspects | impact upon survival [2, 4]: greatest impact upon survival | efficacy compared with racemic pindolol ([2]; dose for dose basis, treatment of cachexia): superior efficacy to the racemic parent material; also recorded: better effects than racemic pindolol
